In one data set the test system is p-ERK in AGS cells. Put plainly: Inhibition of p-ERK in AGS cells (LANCE Ultra phospho-ERK1/2 kit). It counts as cell-based. To be noted: Homo sapiens, AGS, 2 h, read-out: AGS_pERK IC50. An outline of the steps: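 AGS (KRAS G12D) cells plated overnight, treated with compound dilutions for 2 h at 37°C, then lysed. Lysate p-ERK1/2 (T202/Y204) read by TR-FRET with 0.5 nM Eu anti-p-ERK and 5 nM ULight anti-ERK after overnight room-temperature incubation (665/620 nm). IC50 from nonlinear regression of inhibition versus concentration.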
For orientation: In TR-FRET formats the signal depends on donor and acceptor labels being close together.

In data set [1] the test system is human colorectal cancer cell line (GP2D). Put plainly: Anti-tumor efficacy in mouse transplanted tumor model of human colorectal cancer cell line (GP2D). The format is in vivo, mice (BALB/c nude). The conditions noted are these: PO*BID.
The conditions of data set [2]: rat, plasma.
For data set [3], the system named is human colorectal cancer cell line (GP2D). Put plainly: Anti-tumor efficacy in mouse transplanted tumor model of human colorectal cancer cell line (GP2D). The conditions noted are these: 30mpk, PO*BID, Day 14. It counts as in vivo, mice (BALB/c nude).

The values that follow come from patent EP4635958A1, “PYRIMIDINE-CONTAINING POLYCYCLIC DERIVATIVE INHIBITOR, AND PREPARATION METHOD THEREFOR AND USE THEREOF” (Shanghai Hansoh Biomedical Co., Ltd., priority 2022, dated 2024).

As a reminder, the IC50 is the midpoint of a concentration-inhibition curve.

Turning to `[2H]C([2H])([2H])[C@@H]1Oc2nc(-c3cc(O)cc4ccc(F)c(C#C)c34)c(F)c3nc(OCC4(CN5CCC(=C(F)F)CC5)CC4)nc(c23)N2C[C@H]3CC[C@H](N3)[C@@H]12` [Example 161, 4-((5S,5aS,6S,9R)-12-((1-((4-(difluoromethylene)piperidin-1-yl)methyl)cyclopropyl)methoxy)-1-fluoro-5-(methyl-d3)-5a,6,7,8,9,10-hexahydro-5H-4-oxa-3,10a,11,13,14-pentaaza-6,9-methylnaphtho[1,8-ab]hept-2-yl)-5-ethynyl-6-fluoronaphthalen-2-ol], in the data set with p-ERK in AGS cells, the IC50 turned out to be 4.9 nM. Besides, the “Tumor volume (mm^3, Mean ± SD) Day 0” value in data set [1] (30mpk) and in data set [1] (100mpk) was 167 mm^3 throughout. The “TGI(%) Day 14” value in data set [1] (30mpk, Day 14) turned out to be 134.18%; in data set [1] (100mpk, Day 14), 153.75%. In addition, the “ΔT/ΔC(%) Day 14” value was found to be 13.93% in data set [1] (30mpk, Day 14) and 9.79% in data set [1] (100mpk, Day 14). The “Tumor volume (mm^3, Mean ± SD) Day 14” value is 77 mm^3 in data set [1] (100mpk, Day 14) and 110 mm^3 in data set [3]. Further, in data set [2] (0 h), the “Remaining rate (%) 0 min” value amounted to 100.00%. In data set [2] (0.25 h), the “Remaining rate (%) 15 min” value was determined as 94.50%. Besides, in data set [2] (0.5 h), the “Remaining rate (%) 30 min” value was 98.84%. In addition, in data set [2] (1 h), the “Remaining rate (%) 60 min” value amounted to 98.63%. Further, in data set [2] (2 h), the “Remaining rate (%) 120 min” value came to 95.03%.
